The test system of test [1] is G93A aggregates (SOD1). The test is described as follows: Blue-native gel electrophoresis of SOD1 aggregates in G93A mice. It counts as in vivo, mouse. To be noted: 10 mg/kg daily, day 83 to day 103. The method, then: SOD1 mutations increase the propensity of this protein to aggregate in cells (Johnston 2000). We checked whether compound 2a could reduce the accumulation of G93A aggregates in vivo. Starting at post-natal day 83, we injected G93A mice and WT littermates daily with compound 2a (10 mg/kg). We scored motor performances in both vehicle- and compound 2a-treated G93A mice until day 103. […] At day 103, we resolved SC protein extracts by blue-native polyacrylamide gel electrophoresis, and probing these gels with anti-SOD1 antibodies we observed high molecular weight smears in G93A mice that were completely absent in WT litters. The intensity of these high molecular weight entities was lowered in mice treated with lead 2a (FIG. 14B, C). Altogether, retromer stabilization by compound 2a increases lysosomal homeostasis in vitro and in vivo, decreases poly ubiquitination of proteins, and therefore diminishes levels of G93A aggregation.
G93A mice and their WT litters were injected daily with vehicle or compound 2a (10 mg/kg, from day 83 to day 103). Lumbar spinal cords dissected from saline perfused mice were lysed in Tris-HCl 10 mM pH 8, EDTA 1 mM pH 8, NaCl 100 mM, NP40 1% and protease inhibitor cocktail (Sigma). Extracts were obtained using a tight-fitting glass Potter tissue grinder (1 ml; Wheaton). We incubated 250 μl of each extract with 100 mM Iodoacetamide (Sigma). […]

For test [2], the system named is Cathepsin D (CTSD). Kind of test: Cathepsin D expression and maturation in G93A mice. The conditions noted are these: 10 mg/kg, day 100. The class given is in vivo, mouse. The text has this:
We next investigated Cathepsin D (CTSD) expression and distribution in G93A mice, since it is known that the trafficking of this lysosomal enzyme involves the retromer complex (Seaman 2004). In humans, maturation of CTSD starts with a pre-pro-CTSD that is converted to pro-CTSD (52 kDa) in the endoplasmic reticulum. Recycling of pro-CTSD, and its downstream migration to acidic compartments involves CI-MPR and the retromer pathway. In late endosomes, pro-CTSD is further processed to an intermediate form (48 kDa), and finally converted to mature CTSD (34 kDa) in lysosomes (Laurent-Matha 2006). The inactivation of VPS35 or the knockdown of VPS26 affect the maturation of CTSD. We scored CTSD levels in equal amounts of lumbar SC extracts obtained from vehicle-treated WT, G93A mice receiving the vehicle, and G93A treated with lead 2a. […] We next analyzed CTSD levels in MNs by confocal microscopy. We observed a significant reduction of this protease in MNs of vehicle-treated G93A, while such levels increased in G93A mice treated with compound 2a (FIG. 11F). Similarly, numbers of CTSD^+ puncta in lumbar NeuN^+ MNs were reduced in vehicle-treated G93A MNs, while they increased in compound 2a-treated mice (FIG. 11F).
Fluorescence intensity levels of VPS35, VPS26, Sortilin, CTSD and Ubiquitin were calculated using NHI-Image J software (US National Institutes of Health) according to the following protocol: stacks of confocal images were used to generate the maximal projections (Las-X) and then post-processed by NHI-Image J to crop single NeuN^+ MNs from the ventral horn of the spinal cord. We next performed background (calculated on adjacent slices only receiving secondary antibodies) subtraction for each channel, before applying the NHI-Image J mean filter (with radius 2.0 pixels) to calculate mean NeuN fluorescence levels in individual MN. Using this approach, we established a region of interest (ROI) that gated single MN. On this selected ROI, we calculated mean fluoresce levels (MFI) of each protein.

With `N=C(N)NN=Cc1cccc(C=NNC(=N)N)c1` [Compound 2a, 1,3-Bis-amino guanidine phenyl hydrazone], the “intensity of high molecular weight SOD1 entities” value in test [1] is reported as “lowered”. Besides, in test [2], the “CTSD levels in MNs (confocal MFI)” value is “increased”; the “levels of mature CTSD (WB, lumbar SC extracts)” value is “significantly increased”; the “numbers of CTSD+ puncta in lumbar NeuN+ MNs” value was “increased”.

These data come from patent publication US20220213030A1, “AMINOGUANIDINE HYDRAZONES AS RETROMER STABILIZERS USEFUL FOR TREATING NEUROLOGICAL DISEASES” (OSPEDALE SAN RAFFAELE SRL, priority 2019, published 2022).
